For assay [1], the system named is HCT-116 human colon cancer cells. The assay is described as follows: IC50 assay (concentration-cell number study). It counts as cell-based. The conditions noted are these: HCT-116, 120 h exposure. Here is the method: Concentration-cell number studies (IC50 assay) were carried out utilizing 12 separate compositions (numbered 1-12 below) against 13 different cancer cell lines (see Table 6). […] On day 3, cells are exposed to different concentrations of the drug. Flasks are incubated for 120 h (5 d) in a 5% CO2 incubator at 37° C. and the cells harvested with trypsin, washed once with Hanks Balanced Salt Solution (HBSS) and re-suspended in HBSS containing 0.08% Trypan Blue. Both viable and dead cells are counted using a hemocytometer. Viable cell numbers are normalized to an untreated control and plotted as a function of drug concentration. The IC50 value is determined using Prism 4.0.

A short description of assay [2]: ORAC total (Brunswick Test # A103). It counts as biochemical. The conditions noted are these: Cantron oral liquid scores converted from TE/L to TE/g. The method, then:
(§1) Peroxyl radical scores are measured in the ORAC test (Oxygen Radical Absorption Capacity). Hydroxyl Radicals are tested in the HORAC test (Hydroxyl Radical Absorption Capacity). Peroxynitrite Radicals are tested in the NORAC test (Peroxynitrite Radical Absorption Capacity). Superoxide Radicals are measured in the SOD test (Superoxide Radical Absorption Capacity). The ORAC test measures the antioxidant activity against peroxyl radicals by determining how many peroxyl free radicals can be absorbed by a given antioxidant as compared to the vitamin E analog-Trolox. The result is expressed as micromoles of Trolox equivalent per liter (TE/L) for liquid formulations and Trolox equivalent per gram (TE/g) for dry powders. Brunswick tested the Applicant's compounds for antioxidant activity against both hydrophilic and lipophilic peroxyl radicals as expressed in the ORAC total (see table 7).

A further assay has as its system MDA-235 Breast Cancer. The experiment in a line: IC50 assay (concentration-cell number study). Format: cell-based. The conditions noted are these: 120 h exposure.
The test system of a further assay is U251N Brain Cancer. The assay is described as follows: IC50 assay (concentration-cell number study). It counts as cell-based. The conditions noted are these: 120 h exposure.
The test system of a further assay is OVAR-5 Ovarian Cancer. The experiment in a line: IC50 assay (concentration-cell number study). It counts as cell-based. The conditions noted are these: 120 h exposure.
Another assay concerns Colon 38 Colon Cancer. The experiment in a line: IC50 assay (concentration-cell number study). Format: cell-based. The conditions noted are these: 120 h exposure.
The next assay relates to LNCaP Prostate Cancer. The experiment in a line: IC50 assay (concentration-cell number study). It counts as cell-based. The conditions noted are these: 120 h exposure.
For another assay, the system named is L1210 Leukemia. The experiment in a line: IC50 assay (concentration-cell number study). Format: cell-based. The conditions noted are these: 120 h exposure.
The next assay concerns HEP-G2 Liver Cancer. The assay is described as follows: IC50 assay (concentration-cell number study). Format: cell-based. The conditions noted are these: 120 h exposure.
The next assay deals with MCF-7 Breast Cancer. The experiment in a line: IC50 assay (concentration-cell number study). It counts as cell-based. The conditions noted are these: 120 h exposure.
In the next assay the test system is H125 Lung Cancer. The assay is described as follows: IC50 assay (concentration-cell number study). It counts as cell-based. The conditions noted are these: 120 h exposure.
Assay [3] in a line: ORAC hydro (Brunswick Test # A101). Format: biochemical. The conditions noted are these: Cantron oral liquid scores converted from TE/L to TE/g. The method, then:
as §1

The next assay deals with Sarcoma 180. The assay is described as follows: IC50 assay (concentration-cell number study). It counts as cell-based. The conditions noted are these: 120 h exposure.
The nature of assay [4]: NORAC (Brunswick Test # A105). It counts as biochemical. The conditions noted are these: Cantron oral liquid scores converted from TE/L to TE/g. Here is the method: Peroxyl radical scores are measured in the ORAC test (Oxygen Radical Absorption Capacity). Hydroxyl Radicals are tested in the HORAC test (Hydroxyl Radical Absorption Capacity). Peroxynitrite Radicals are tested in the NORAC test (Peroxynitrite Radical Absorption Capacity). Superoxide Radicals are measured in the SOD test (Superoxide Radical Absorption Capacity). Applicant's compounds and compositions were tested by the NORAC test (Brunswick test # A 105), which measures the activity of a given antioxidant against peroxynitrite radicals. NORAC tests were based on the method of Chung H. et al (2001) Journal Agricultural of Food Chemistry, 49: 3614-3621. Scores are expressed in micromoles of trolox equivalent per liter (TE/L) for liquid formulations and Trolox equivalent per gram (TE/g) for dry powders.

Assay [5] can be described thus: HORAC (Brunswick Test # A104). The conditions noted are these: Cantron oral liquid scores converted from CAE/L to CAE/g. It counts as biochemical. The method, then: Peroxyl radical scores are measured in the ORAC test (Oxygen Radical Absorption Capacity). Hydroxyl Radicals are tested in the HORAC test (Hydroxyl Radical Absorption Capacity). Peroxynitrite Radicals are tested in the NORAC test (Peroxynitrite Radical Absorption Capacity). Superoxide Radicals are measured in the SOD test (Superoxide Radical Absorption Capacity). […] The result is expressed as micromoles of caffeic acid equivalent per liter (CAE/L) for liquid formulations and caffeic acid equivalent per gram (CAE/g) for dry powders.

The nature of assay [6]: SORAC (Brunswick Test # A106). It counts as biochemical. The conditions noted are these: Cantron oral liquid scores converted from unitsSODeq/L to unitsSODeq/g. The method, then: Peroxyl radical scores are measured in the ORAC test (Oxygen Radical Absorption Capacity). Hydroxyl Radicals are tested in the HORAC test (Hydroxyl Radical Absorption Capacity). Peroxynitrite Radicals are tested in the NORAC test (Peroxynitrite Radical Absorption Capacity). Superoxide Radicals are measured in the SOD test (Superoxide Radical Absorption Capacity). Applicant's compounds and compositions were tested by the SORAC test (Brunswick test #106), which measures the activity of a given antioxidant against Superoxide radicals. The tests were conducted based on the method of Zhao et al (1999) Journal of Agricultural and Food Chemistry, (1999), 47: 2537-2543. The calibration standard was SOD and was expressed as a unit SOD equivalent per liter (unitsSODeq/L) for liquid formulations and unit SOD equivalent per gram (unitsSODeq/g) for dry powders.

In a further assay the test system is CCRF-CEM Leukemia. The assay is described as follows: IC50 assay (concentration-cell number study). Format: cell-based. The conditions noted are these: 120 h exposure.
A short description of assay [7]: ORAC lipo (Brunswick Test # A102). It counts as biochemical. The conditions noted are these: Cantron oral liquid scores converted from TE/L to TE/g. The method, then: as §1
Assay [8] concerns Panc 01 Pancreatic Cancer. The assay is described as follows: IC50 assay (concentration-cell number study). Format: cell-based. The conditions noted are these: 120 h exposure.
Description: (§2) Concentration-cell number studies (IC50 assay) were carried out utilizing 12 separate compositions (numbered 1-12 below) against 13 different cancer cell lines (see Table 6). These cells are grown in 5 ml culture medium (RPMI-1640+15% Bovine Calf serum containing 1% penicillin-streptomycin, and 1% Glutamine) at 37° C. and 5% CO2 at a starting concentration of 5×10^4 cells/T25 flask. On day 3, cells are exposed to different concentrations of the drug. Flasks are incubated for 120 h (5 d) in a 5% CO2 incubator at 37° C. and the cells harvested with trypsin, washed once with Hanks Balanced Salt Solution (HBSS) and re-suspended in HBSS containing 0.08% Trypan Blue. Both viable and dead cells are counted using a hemocytometer. Viable cell numbers are normalized to an untreated control and plotted as a function of drug concentration. The IC50 value is determined using Prism 4.0.
Assay [9] concerns 13 different cancer cell lines. The experiment in a line: IC50 assays, average or range over all cell lines. Format: cell-based. The conditions noted are these: average of 13 cell lines.
Description: (§3) These cells are grown in 5 ml culture medium (RPMI-1640+15% Bovine Calf serum containing 1% penicillin-streptomycin, and 1% Glutamine) at 37° C. and 5% CO2 at a starting concentration of 5×10^4 cells/T25 flask. On day 3, cells are exposed to different concentrations of the drug. Flasks are incubated for 120 h (5 d) in a 5% CO2 incubator at 37° C. and the cells harvested with trypsin, washed once with Hanks Balanced Salt Solution (HBSS) and re-suspended in HBSS containing 0.08% Trypan Blue. Both viable and dead cells are counted using a hemocytometer. Viable cell numbers are normalized to an untreated control and plotted as a function of drug concentration. The IC50 value is determined using Prism 4.0.
(§4) Cell Lines utilized in IC50 Assays: HCT-116 human colon cancer cells, H125 Lung Cancer, MCF-7, Breast Cancer, MDA-235 Breast Cancer, LNCaP Prostate Cancer, OVAR-5 Ovarian Cancer, U251N Brain Cancer Sarcoma 180, Panc 01Pancreatic Cancer, CCRF-CEM Leukemia, HEP-G2 Liver Cancer, L1210 Leukemia, Colon 38 Colon Cancer.
Assay [10] has as its system HCT-116 human colon cancer cells. The experiment in a line: Clonogenic dose response. Format: cell-based. The method, then:
Clonogenic survival of the cells was measured by a standard tissue culture procedure.
Asimicin was prepared in ethanol. Clonogenic survival of the cells was measured by a standard tissue culture procedure.

Where [11] appears, read: Homo sapiens, HCT-116, 120 h, read-out: IC50.

In brackets after ≈: the same amount, converted by molar mass. Read-outs that look alike come from different tables or passages of the source.

Description for CCRF-CEM Leukemia: as §2
Description for Colon 38 Colon Cancer: as §3, §4
Description for H125 Lung Cancer: as §3, §4
Description for HEP-G2 Liver Cancer: as §2
Description for L1210 Leukemia: as §2
Description for LNCaP Prostate Cancer: as §2
Description for MCF-7 Breast Cancer: as §2
Description for MDA-235 Breast Cancer: as §2
Description for OVAR-5 Ovarian Cancer: as §2
Description for Sarcoma 180: as §2
Description for U251N Brain Cancer: as §2

Usually IC50 stands for the point on the concentration scale where inhibition reaches its midpoint. For the compound `O=C1O[C@H]([C@@H](O)CO)C(O)=C1O` [Vitamin C, reference compound], the IC50 in [1] (setting [11]) is more than 100 µg/mL.

Turning to `CC(=O)O[C@H]1C(=O)[C@@]2(C)[C@H]([C@H](OC(=O)c3ccccc3)[C@]3(O)C[C@H](OC(=O)[C@H](O)[C@@H](NC(=O)c4ccccc4)c4ccccc4)C(C)=C1C3(C)C)[C@]1(OC(C)=O)CO[C@@H]1C[C@@H]2O` [Taxol, reference compound], the IC50 in [1] (setting [11]) was found to be 0.0002 µg/mL (≈ 0.000234 µM).

Turning to `O=C1C(O)=C(O)C(=O)C(O)=C1O` [Composition 4, tetrahydroxy-1,4-quinone], the “TOTAL ORAC SCORE” value in assay [2] is 1,508 micromoles TE/g. The IC50 in the assay with MDA-235 Breast Cancer stood at 5.8 µg/mL (≈ 33.7 µM); in the assay on U251N Brain Cancer it was 8.0 µg/mL (≈ 46.5 µM); with OVAR-5 Ovarian Cancer, 28 µg/mL (≈ 163 µM); in the assay on Colon 38 Colon Cancer, 19 µg/mL (≈ 110 µM); with LNCaP Prostate Cancer, 54 µg/mL (≈ 314 µM); in the assay with L1210 Leukemia, 49 µg/mL (≈ 285 µM). Further, the IC50 with HEP-G2 Liver Cancer was 8.5 µg/mL (≈ 49.4 µM); in the assay on MCF-7 Breast Cancer it was 5.9 µg/mL (≈ 34.3 µM); in [1], 17.0 µg/mL (≈ 98.8 µM); in assay [1] (listed as 4), 17 µg/mL (≈ 98.8 µM); in the assay on H125 Lung Cancer, 53 µg/mL (≈ 308 µM); with Sarcoma 180 it was 51 µg/mL (≈ 296 µM). Moreover, the IC50 in the assay with CCRF-CEM Leukemia came to 7.0 µg/mL (≈ 40.7 µM); in assay [8], 24 µg/mL (≈ 139 µM). Besides, the “ORAC hydro SCORE” value in [3] was 1,507 micromoles TE/g. Also, in assay [4], the “NORAC SCORE” value amounted to 438 micromoles TE/g. The “HORAC SCORE” value in assay [5] is listed as 129 micromoles CAE/g. In [6], the “SOD SCORE” value is on record as 145,000 unitsSODeq/g. The “ORAC lipo SCORE” value in assay [7] stood at 1 micromoles TE/g. In addition, the “IC50 AVG.” value in assay [9] was found to be 25 µg/mL (≈ 145 µM).

`O=c1c(O)c(O)c(=O)c1=O` [Croconic Acid]: in assay [2], the “TOTAL ORAC SCORE” value was 1,106 micromoles TE/g. Moreover, in assay [3], the “ORAC hydro SCORE” value was 1,106 micromoles TE/g. In addition, the “NORAC SCORE” value in assay [4] came to 1 micromoles TE/g. Further, in assay [5], the “HORAC SCORE” value was determined as 19 micromoles CAE/g. Also, the “SOD SCORE” value in assay [6] is recorded as 0 unitsSODeq/g. In addition, in assay [7], the “ORAC lipo SCORE” value was determined as 0 micromoles TE/g.

In the case of Asimicin, the clonogenic survival in [10] (24 h exposure, 10 micrograms/ml) amounted to 0.1. Also, the “effect on clonogenic survival” value in assay [10] (24 h exposure, concentrations up to 1 microgram/ml) is on record as “no effect”. Further, in assay [10] (168 h versus 24 h exposure), the “fold greater cell killing than found with the 24 h exposure” value was approximately 100.000 fold. Further, in assay [10] (concentration of up to 10 micrograms/ml, exposure time not given), the “effect on the survival of the tumor cells” value is “no effect”. Moreover, the “concentration with cell survival at the 0.1 level” value in [10] (extended exposure 168 h) turned out to be 200 picograms/ml.

With `O=C(O)CCCCC1CCSS1` (stereo not drawn) [Alpha-lipoic acid, reference compound], the IC50 in assay [1] (setting [11]) is more than 100 µg/mL.

Consider `CC[C@]1(O)C[C@H]2CN(CCc3c([nH]c4ccccc34)[C@@](C(=O)OC)(c3cc4c(cc3OC)N(C=O)[C@H]3[C@@](O)(C(=O)OC)[C@H](OC(C)=O)[C@]5(CC)C=CCN6CC[C@]43[C@@H]65)C2)C1` [Vincristine, reference compound], for which the IC50 in [1] (setting [11]) stood at 0.005 µg/mL (≈ 0.00606 µM).

Regarding Vitamin E [reference compound], in assay [1], the IC50 is more than 100 µg/mL.

Regarding Acetogenin [Composition 3], the IC50 was found to be 0.0013 µg/mL in the assay on MDA-235 Breast Cancer; 0.0012 µg/mL in the assay on U251N Brain Cancer; 0.0018 µg/mL in the assay on OVAR-5 Ovarian Cancer; 0.00019 µg/mL with Colon 38 Colon Cancer; 0.005 µg/mL in the assay with LNCaP Prostate Cancer; 0.013 µg/mL in the assay with L1210 Leukemia. For the same compound, the IC50 in the assay on HEP-G2 Liver Cancer came to 0.0022 µg/mL; in the assay with MCF-7 Breast Cancer, 0.0013 µg/mL; in assay [1], 0.002 µg/mL; in assay [1] (listed as 3) it was 0.002 µg/mL; in the assay with H125 Lung Cancer it was 0.0014 µg/mL; with Sarcoma 180 it was 0.0012 µg/mL. Also, the IC50 in the assay on CCRF-CEM Leukemia stood at 0.0052 µg/mL; in assay [8], 0.00041 µg/mL. Besides, in assay [9], the “IC50 AVG.” value came to 0.0028 µg/mL.

With `O=c1[nH]cc(F)c(=O)[nH]1` [5-Fluorouracil, reference compound], the IC50 in assay [1] (setting [11]) was 0.15 µg/mL (≈ 1.15 µM).

In assay [1], `N.N.[Cl][Pt][Cl]` [cis-Platinum, reference compound] returned an IC50 of 0.10 µg/mL.

For the compound `COc1cccc2c1C(=O)c1c(O)c3c(c(O)c1C2=O)C[C@@](O)(C(=O)CO)C[C@@H]3O[C@H]1C[C@H](N)[C@H](O)[C@H](C)O1` [Adriamycin, reference compound], the IC50 in assay [1] (setting [11]) is 0.03 µg/mL (≈ 0.0552 µM).

These data come from patent publication US8669292B2, “Therapeutic formulation” (Orion Therapeutics, LLC, priority 2005, dated 2014).
